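Growth conditions: 96-well plates. Treatment: test compound, 48 hours, 5 concentrations. Analysis: linear interpolation between bracketing concentrations; unreached endpoints set to highest concentration. GI50 = concentration required for 50% inhibition of growth. Definition used: TGI = concentration required for complete inhibition of growth.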
Legend:
Experiment in all cases: DTP human tumour cell line panel, 48 h
OVCAR-5 ovarian = system: OVCAR-5 ovarian
MDA-MB-435 = system: MDA-MB-435
CCRF-CEM leukemia = system: CCRF-CEM leukemia
UO-31 renal = system: UO-31 renal
HL-60(TB) leukemia = system: HL-60(TB) leukemia
HOP-92 NSCLC = system: HOP-92 NSCLC
CAKI-1 renal = system: CAKI-1 renal
DU-145 prostate = system: DU-145 prostate
SK-MEL-28 melanoma = system: SK-MEL-28 melanoma
HT29 colon = system: HT29 colon
PC-3 prostate = system: PC-3 prostate
HCT-116 colon = system: HCT-116 colon
HCT-15 colon = system: HCT-15 colon
786-0 renal = system: 786-0 renal
NCI-H522 lung = system: NCI-H522 lung
RPMI-8226 leukemia = system: RPMI-8226 leukemia
EKVX NSCLC = system: EKVX NSCLC
MOLT-4 leukemia = system: MOLT-4 leukemia
SF-268 CNS = system: SF-268 CNS
ACHN renal = system: ACHN renal
MCF7 breast = system: MCF7 breast
RXF 393 renal = system: RXF 393 renal
NCI-H226 lung = system: NCI-H226 lung
NCI-H460 lung = system: NCI-H460 lung
OVCAR-8 ovarian = system: OVCAR-8 ovarian
T-47D breast = system: T-47D breast
A498 renal = system: A498 renal
UACC-62 melanoma = system: UACC-62 melanoma
SNB-75 CNS = system: SNB-75 CNS
SNB-19 CNS = system: SNB-19 CNS
SK-MEL-2 melanoma = system: SK-MEL-2 melanoma
NCI-H23 lung = system: NCI-H23 lung
U251 CNS = system: U251 CNS
COLO 205 colon = system: COLO 205 colon
K-562 leukemia = system: K-562 leukemia
SK-OV-3 ovarian = system: SK-OV-3 ovarian
UACC-257 melanoma = system: UACC-257 melanoma
SF-539 CNS = system: SF-539 CNS
A549 NSCLC = system: A549 NSCLC
BT-549 breast = system: BT-549 breast
KM12 colon = system: KM12 colon
MALME-3M melanoma = system: MALME-3M melanoma
OVCAR-4 ovarian = system: OVCAR-4 ovarian
IGROV1 ovarian = system: IGROV1 ovarian
NCI/ADR-RES ovarian = system: NCI/ADR-RES ovarian
MDA-MB-231 breast = system: MDA-MB-231 breast
M14 melanoma = system: M14 melanoma
SK-MEL-5 melanoma = system: SK-MEL-5 melanoma
OVCAR-3 ovarian = system: OVCAR-3 ovarian
HCC-2998 colon = system: HCC-2998 colon
SN12C renal = system: SN12C renal
SW-620 colon = system: SW-620 colon
HS 578T breast = system: HS 578T breast
SF-295 CNS = system: SF-295 CNS
TK-10 renal = system: TK-10 renal
HOP-62 NSCLC = system: HOP-62 NSCLC
LOX IMVI melanoma = system: LOX IMVI melanoma
SR leukemia = system: SR leukemia

## COc1ccc2nc3cc(Cl)ccc3c(NCCCNCc3cc(OC)c(OC)c(OC)c3)c2c1
OVCAR-5 ovarian
  TGI: 3.11 µM
MDA-MB-435
  TGI: 3.24 µM
CCRF-CEM leukemia
  TGI: > 100 µM

## OC(c1cc2cc(Br)ccc2c2cc(Br)ccc12)C1CCCCN1 (stereo not given)
UO-31 renal
  GI50: 1460 nM
  TGI: 3.18 µM
HL-60(TB) leukemia
  GI50: 1750 nM
  TGI: 3.43 µM
OVCAR-5 ovarian
  GI50: 1580 nM
  TGI: 3.13 µM
HOP-92 NSCLC
  GI50: 1210 nM
  TGI: 2.67 µM
CAKI-1 renal
  GI50: 1760 nM
  TGI: 3.54 µM
DU-145 prostate
  GI50: 1950 nM
  TGI: 3.43 µM

## COc1ccc(CN2C(=O)/C(=C\c3cc(OC)c(OC)c(OC)c3)c3cc(OC)ccc32)cc1
SK-MEL-28 melanoma
  GI50: 1720 nM
  TGI: 3.3 µM
HT29 colon
  GI50: 2190 nM
  TGI: 4.45 µM
PC-3 prostate
  GI50: 3.35 µM
  TGI: 19.5 µM
HCT-116 colon
  GI50: 1.63 µM
  TGI: 3.05 µM
HCT-15 colon
  GI50: 1.66 µM
  TGI: 3.42 µM
786-0 renal
  GI50: 2.29 µM
  TGI: 5.07 µM
NCI-H522 lung
  GI50: 1.32 µM
  TGI: 2.8 µM
RPMI-8226 leukemia
  GI50: 1.89 µM
  TGI: 5.63 µM
UO-31 renal
  GI50: 2670 nM
  TGI: 10.7 µM
EKVX NSCLC
  GI50: 3.83 µM
  TGI: > 65.6 µM
MOLT-4 leukemia
  GI50: 4.07 µM
  TGI: > 100 µM
SF-268 CNS
  GI50: 2.68 µM
  TGI: 7.05 µM
ACHN renal
  GI50: 1.73 µM
  TGI: 3.2 µM
MCF7 breast
  GI50: 2.91 µM
  TGI: 11.8 µM
RXF 393 renal
  GI50: 1.63 µM
  TGI: 3.47 µM
HL-60(TB) leukemia
  GI50: 3280 nM
  TGI: > 28.5 µM
OVCAR-5 ovarian
  GI50: 2470 nM
  TGI: 5.51 µM
NCI-H226 lung
  GI50: 3.93 µM
  TGI: 22.8 µM
NCI-H460 lung
  GI50: 1.91 µM
  TGI: 3.83 µM
OVCAR-8 ovarian
  GI50: 2.32 µM
  TGI: > 23.9 µM
T-47D breast
  GI50: 2340 nM
  TGI: 7.62 µM
HOP-92 NSCLC
  GI50: 1210 nM
  TGI: 16.8 µM
A498 renal
  GI50: 1.5 µM
  TGI: 4.39 µM
MDA-MB-435
  GI50: 2.88 µM
  TGI: 8.88 µM
CAKI-1 renal
  GI50: 2950 nM
  TGI: > 22.2 µM
UACC-62 melanoma
  GI50: 1.71 µM
  TGI: 4.19 µM
SNB-75 CNS
  GI50: 2170 nM
  TGI: 6.62 µM
SNB-19 CNS
  GI50: 3 µM
  TGI: 10.7 µM
SK-MEL-2 melanoma
  GI50: 1.92 µM
  TGI: 4.01 µM
NCI-H23 lung
  GI50: 1.84 µM
  TGI: 3.85 µM
U251 CNS
  GI50: 1.38 µM
  TGI: 2670 nM
CCRF-CEM leukemia
  GI50: 3.4 µM
  TGI: > 100 µM
COLO 205 colon
  GI50: 2.59 µM
  TGI: 6.51 µM
K-562 leukemia
  GI50: 3.13 µM
  TGI: > 35.5 µM
SK-OV-3 ovarian
  GI50: 3.12 µM
  TGI: 13.1 µM
UACC-257 melanoma
  GI50: 1.94 µM
  TGI: 4.94 µM
SF-539 CNS
  GI50: 1.86 µM
  TGI: 3.76 µM
A549 NSCLC
  GI50: 2.74 µM
  TGI: 8.62 µM
BT-549 breast
  GI50: 3.34 µM
  TGI: 20.4 µM
KM12 colon
  GI50: 2.04 µM
  TGI: 4.05 µM
MALME-3M melanoma
  GI50: 3.82 µM
  TGI: 34.1 µM
OVCAR-4 ovarian
  GI50: 3.5 µM
  TGI: 27.4 µM
IGROV1 ovarian
  GI50: 1.8 µM
  TGI: 4.06 µM
DU-145 prostate
  GI50: 2960 nM
  TGI: 7.64 µM
NCI/ADR-RES ovarian
  GI50: 2.69 µM
  TGI: 9.11 µM
MDA-MB-231 breast
  GI50: 2.89 µM
  TGI: > 100 µM
M14 melanoma
  GI50: 1.98 µM
  TGI: 4.32 µM
SK-MEL-5 melanoma
  GI50: 3.09 µM
  TGI: 9.41 µM
OVCAR-3 ovarian
  GI50: 2.14 µM
  TGI: 4.7 µM
HCC-2998 colon
  GI50: 2.05 µM
  TGI: 3.85 µM
SN12C renal
  GI50: 3.53 µM
  TGI: > 39.4 µM
SW-620 colon
  GI50: 1.82 µM
  TGI: 3.41 µM
HS 578T breast
  GI50: 2.4 µM
  TGI: 8.72 µM
SF-295 CNS
  GI50: 3.26 µM
  TGI: > 31.4 µM
TK-10 renal
  GI50: 3.92 µM
  TGI: 18.6 µM
HOP-62 NSCLC
  GI50: 2.37 µM
  TGI: 4.89 µM
LOX IMVI melanoma
  GI50: 1.35 µM
  TGI: 2670 nM

## Oc1ccc(C(c2ccccc2)(c2ccccc2)c2ccccc2)cc1
PC-3 prostate
  GI50: 20.6 µM
  TGI: 36.1 µM
HCT-116 colon
  GI50: 12.9 µM
  TGI: 26.1 µM
HCT-15 colon
  GI50: 27.5 µM
  TGI: > 100 µM
786-0 renal
  GI50: 14.4 µM
  TGI: 29.7 µM
NCI-H522 lung
  GI50: 13.7 µM
  TGI: 27.2 µM
RPMI-8226 leukemia
  GI50: 22 µM
  TGI: 45.5 µM
UO-31 renal
  GI50: 11800 nM
  TGI: 26.9 µM
EKVX NSCLC
  GI50: 15.4 µM
  TGI: 29.3 µM
MOLT-4 leukemia
  GI50: 17.8 µM
  TGI: 36.6 µM
SF-268 CNS
  GI50: 21.5 µM
  TGI: 69.4 µM
ACHN renal
  GI50: 21.9 µM
  TGI: 41.4 µM
MCF7 breast
  GI50: 10.3 µM
  TGI: 34.3 µM
RXF 393 renal
  GI50: 10.4 µM
  TGI: 25 µM
OVCAR-5 ovarian
  GI50: 14400 nM
  TGI: 28.1 µM
NCI-H226 lung
  GI50: 19.4 µM
  TGI: 37.6 µM
NCI-H460 lung
  GI50: 15.3 µM
  TGI: 48.1 µM
OVCAR-8 ovarian
  GI50: 18.2 µM
  TGI: 35.9 µM
HOP-92 NSCLC
  GI50: 17800 nM
  TGI: 34.1 µM
A498 renal
  GI50: 20.5 µM
  TGI: 35.1 µM
MDA-MB-435
  GI50: 19.9 µM
  TGI: 38.3 µM
CAKI-1 renal
  GI50: 14000 nM
  TGI: 29.6 µM
UACC-62 melanoma
  GI50: 16 µM
  TGI: 30.6 µM
SNB-19 CNS
  GI50: 16.8 µM
  TGI: 32.2 µM
SK-MEL-2 melanoma
  GI50: 13.6 µM
  TGI: 27 µM
NCI-H23 lung
  GI50: 14 µM
  TGI: 28.9 µM
U251 CNS
  GI50: 28.9 µM
  TGI: > 100000 nM
CCRF-CEM leukemia
  GI50: 21.1 µM
  TGI: 39.5 µM
COLO 205 colon
  GI50: 15.5 µM
  TGI: 29.8 µM
K-562 leukemia
  GI50: 24.9 µM
  TGI: 61.2 µM
SK-OV-3 ovarian
  GI50: 16.3 µM
  TGI: 30 µM
UACC-257 melanoma
  GI50: 15.5 µM
  TGI: 31.3 µM
SF-539 CNS
  GI50: 17.6 µM
  TGI: 31.9 µM
A549 NSCLC
  GI50: 12.8 µM
  TGI: 29 µM
BT-549 breast
  GI50: 17.1 µM
  TGI: 31.3 µM
KM12 colon
  GI50: 19.3 µM
  TGI: 48.7 µM
MALME-3M melanoma
  GI50: 27.2 µM
  TGI: 68.9 µM
OVCAR-4 ovarian
  GI50: 12.3 µM
  TGI: 25.2 µM
IGROV1 ovarian
  GI50: 14.3 µM
  TGI: 27.6 µM
DU-145 prostate
  GI50: 13300 nM
  TGI: 27.8 µM
NCI/ADR-RES ovarian
  GI50: 15 µM
  TGI: 28.6 µM
MDA-MB-231 breast
  GI50: 16.7 µM
  TGI: 34.2 µM
M14 melanoma
  GI50: 15.6 µM
  TGI: 30.3 µM
SR leukemia
  GI50: 25.4 µM
  TGI: 56.9 µM
SK-MEL-5 melanoma
  GI50: 15.7 µM
  TGI: 32.5 µM
OVCAR-3 ovarian
  GI50: 16.6 µM
  TGI: 37.6 µM
HCC-2998 colon
  GI50: 12.7 µM
  TGI: 25.7 µM
SN12C renal
  GI50: 16.9 µM
  TGI: 31.6 µM
SW-620 colon
  GI50: 22.4 µM
  TGI: 66.1 µM
HS 578T breast
  GI50: 17.6 µM
  TGI: 65.1 µM
SF-295 CNS
  GI50: 27.2 µM
  TGI: > 100 µM
TK-10 renal
  GI50: 36.7 µM
  TGI: 87.4 µM
HOP-62 NSCLC
  GI50: 17.6 µM
  TGI: 31.5 µM
LOX IMVI melanoma
  GI50: 24.4 µM
  TGI: > 100000 nM
